“Also recorded” adds a separate entry of the source. Where two headings read alike, the source gives them in different places.
Key:
[1] = tested on: RNA construct containing CUG repeats (RNA hairpin 1; SEQ ID NO:1); assay: MicroScale Thermophoresis (MST) fluorescence binding assay, RNA hairpin 1; conditions: RNA hairpin 1 (CUG repeats)
Description: [The procedure below names another target; the source lists this target under the same test.] This direct binding was determined using a MicroScale Thermophoresis (MST) Fluorescence binding assays with Tideglusib and an RNA hairpin containing CUG repeats. […] MBNL1 has a well characterized role in myotonic dystrophy where impaired RNA splicing disrupts muscle development and function.
The method used for the MST fluorescence assay was as follows. A serial dilution of the ligand (Tideglusib) was prepared in a way to match the final buffer conditions in the reaction mix (assay buffer 20 mM HEPES pH 7.4, 0.05% Tween-20). The highest concentration of ligand was 500 μM and the lowest 15.3 nM. 5 μl of each dilution step were mixed with 5 μl of the fluorescent molecule. The final reaction mixture, which was filled in capillaries, contained a respective amount of ligand (max. conc. 250 μM, min. conc. 7.63 nM) and constant 50 nM fluorescent molecule. The samples were analyzed on a Monolith NT. 115 at 25° C., with 40% LED power and 40% Laser power. The fluorescence labeled RNA construct (RNA hairpin 2; produced by Metabion) had the following sequence: […]

GSK3β = GSK3β kinase protein levels in lymphocytes from treated Congenital Onset DM1 patients; format: in vivo, human; conditions: 400 mg or 1000 mg po per day, six and twelve weeks of treatment
Description: (§1) Lymphocyte cell pellets were lysed in 150 μl of cold NP40 Cell Lysis Buffer with protease inhibitors. Total protein of each extract was measured with DC Protein assay Kit according to the manufacturer specifications. For the analysis of GSK3β and related kinases, the commercially available kits AKT Pathway Total Multispecies 7-Plex Panel and the equivalent for the phosphorylated forms for Luminex® Platform from Thermo Fisher Scientific were used. These were the AKT Pathway (Total) 7-Plex Multispecies Panel (#LHO0002M ThermoFisher Scientific) that assays the following signaling proteins: GSK3β, Total IR, IGF-1R, IRS-1, Akt, PRAS40 and p70s6K. The AKT Pathway (Phospho) 7-Plex Multispecies Panel (#LHO0001M ThermoFisher Scientific) assays the following signaling proteins: GSK3β[pS9], IR[pYpY1162/1163], IGF-1R[pYpY1135/1136], IRS-1[pS312], Akt[pS473], PRAS40[pT246] and p70s6K[pTpS421/424].

[2] = tested on: phosphorylated Akt (pAkt); assay: Phosphorylated Akt (pAkt) levels in lymphocytes from treated Congenital Onset DM1 patients; format: in vivo, human; conditions: 400 mg or 1000 mg per day, six and twelve weeks of treatment
Description: as §1, with “In order to determine whether the clinical benefit produced by administration of Tideglusib could be related to inhibition of GSK3β, the activity of this kinase in circulating tissues in treated patients was determined. Lymphocyte” for “Lymphocyte”, “IRS-1[[…]],” for “IRS-1[pS312],”, “PRAS40[[…]]” for “PRAS40[pT246]”, “[…]421/424].” for “p70s6K[pTpS421/424].”

[3] = tested on: RNA construct containing CAG repeats (RNA hairpin 2; SEQ ID NO:2); assay: MicroScale Thermophoresis (MST) fluorescence binding assay, RNA hairpin 2; conditions: RNA hairpin 2 (CAG repeats)
Description: The method used for the MST fluorescence assay was as follows. A serial dilution of the ligand (Tideglusib) was prepared in a way to match the final buffer conditions in the reaction mix (assay buffer 20 mM HEPES pH 7.4, 0.05% Tween-20). The highest concentration of ligand was 500 μM and the lowest 15.3 nM. 5 μl of each dilution step were mixed with 5 μl of the fluorescent molecule. The final reaction mixture, which was filled in capillaries, contained a respective amount of ligand (max. conc. 250 μM, min. conc. 7.63 nM) and constant 50 nM fluorescent molecule. The samples were analyzed on a Monolith NT. 115 at 25° C., with 40% LED power and 40% Laser power. The fluorescence labeled RNA construct (RNA hairpin 2; produced by Metabion) had the following sequence:
Binding to other RNA trinucleotide repeats was investigated by repeating the experimental protocol above with an RNA repeat construct containing CAG repeats (RNA hairpin 2).

[4] = biological target: RNA construct containing CUG repeats with interspersed interrupting non CUG repeats (RNA hairpin 3; SEQ ID NO:3); assay: MicroScale Thermophoresis (MST) fluorescence binding assay, RNA hairpin 3
[5] = tested on: phosphorylated Akt (pAkt); assay: Phosphorylated Akt in lymphocytes from pediatric subjects with Autism Spectrum Disorder; format: in vivo, human; conditions: 12 weeks, titrated 400 mg to 1000 mg oral once per day, versus placebo, p<0.0001
Description: as §1, with “In order to determine whether the clinical benefit produced by administration of Tideglusib could be related to inhibition of GSK3β, the activity of this kinase in circulating tissues in treated patients was determined. Lymphocyte” for “Lymphocyte”, “IRS-1[[…]],” for “IRS-1[pS312],”, “PRAS40[[…]]” for “PRAS40[pT246]”, “[…]421/424].” for “p70s6K[pTpS421/424].”

ERK (pERK) = assay: Phosphorylated ERK in lymphocytes from pediatric subjects with Autism Spectrum Disorder; format: in vivo, human; conditions: 12 weeks, titrated 400 mg to 1000 mg oral once per day, versus placebo
patients having DM1 = assay: Clinical Global Impression of Improvement in patients having DM1; format: in vivo, human; conditions: patients having DM1, 400 mg or 1000 mg
JNK (pJNK) = assay: Phosphorylated JNK in lymphocytes from pediatric subjects with Autism Spectrum Disorder; format: in vivo, human; conditions: 12 weeks, titrated 400 mg to 1000 mg oral once per day, versus placebo

## O=C(NCc1ccccc1)Nc1cccc2ccccc12 [urea derivative of Tideglusib, 1-benzyl-3-naphthalen-1-yl-urea]
[1]; MST
  binding to CUG repeat RNA (in words): no binding activity
[1]; MST, listed as main metabolite of Tideglusib
  binding to CUG repeat RNA (in words): No reliable binding

## O=c1sn(-c2cccc3ccccc23)c(=O)n1Cc1ccccc1 [Tideglusib, 4-Benzyl-2-naphthalen-1-yl-[1,2,4]thiadiazolidine-3,5-dione]
GSK3β
  effect on GSK3β levels in lymphocytes: Neither dose shows any effect
GSK3β; listed as Compound 1
  effect on GSK3β levels in lymphocytes: no effect
[1]; MST, 25° C., read-out: KD of binding
  Kd: 0.0197 µM
[2]
  effect on phosphorylated Akt (pAkt) levels in lymphocytes: not achieved; also recorded: unable overcome the phosphorylation of Akt
[2]; listed as Compound 1
  effect on phosphorylated Akt (pAkt) levels in lymphocytes: no effect
[3]
  binding to CAG repeat RNA (in words): No reliable of binding
[4]; RNA hairpin 3, CUG repeats with interrupting non CUG repeats, read-out: KD of binding
  Kd: 3.2 µM
[4]; RNA hairpin 3, interspersed non CUG repeats (CCG and CUC), read-out: potency of binding
  Kd: 3.2 µM
[4]; RNA hairpin 3 versus RNA hairpin 1
  fold less potent binding versus RNA hairpin 1: 162 fold
[5]
  inhibition of phosphorylation of Akt in lymphocytes: reduces levels of phosphorylation of Akt; also recorded: inhibited phosphorylation of Akt
ERK (pERK)
  inhibition of phosphorylation of ERK in lymphocytes: did not inhibit phosphorylation
Patients having DM1
  clinical benefit, Clinical Global Impression of Improvement measurement scale: majority of patients having DM1 treated with Tideglusib showed clinical benefit
JNK (pJNK)
  inhibition of phosphorylation of JNK in lymphocytes: did not inhibit phosphorylation

## CCn1c(=O)sn(Cc2ccccc2)c1=O [Compound 2, 2-Benzyl-4-ethyl-[1,2,4]thiadiazolidine-3,5-dione]
[1]; data not shown, read-out: KD
  Kd: 31.4 µM

Reference: US20230241038A1, “METHOD OF TREATING RNA REPEAT MEDIATED DISEASES WITH RNA REPEAT BINDING COMPOUND” (AMO Pharma Ltd., priority 2021, published 2023)
